In general, TGI refers to the concentration at which net growth stops. A higher TGI goes with less potent growth arrest.

Some test systems named below: NCI-H226 lung; DU-145 prostate; COLO 205 colon; MOLT-4 leukemia; RPMI-8226 leukemia; NCI-H460 lung; SK-MEL-5 melanoma; SR leukemia; U251 CNS; HCC-2998 colon; IGROV1 ovarian; NCI-H522 lung; SNB-19 CNS; OVCAR-5 ovarian; ACHN renal; SK-MEL-2 melanoma; HS 578T breast; PC-3 prostate; K-562 leukemia; CCRF-CEM leukemia.
Common to all, as to experiment: DTP human tumour cell line panel, 48 h

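Method: 48-hour compound exposure of cells in 96-well plates, five concentrations, linear interpolation of endpoints. The concentration for full growth arrest is given as TGI.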 A value given as a limit tells only on which side of the number the result lay.

Consider `COc1ccc(N=Nc2ccc3oc(=O)c(C(=O)Nc4ccccc4)cc3c2)cc1`, for which the TGI with NCI-H226 lung, with DU-145 prostate, in the assay on COLO 205 colon, in the assay on MOLT-4 leukemia, in the assay with RPMI-8226 leukemia and in the assay on NCI-H460 lung was more than 10 µM throughout. In addition, the TGI with SK-MEL-5 melanoma, in the assay with SR leukemia, in the assay with U251 CNS, in the assay with HCC-2998 colon, in the assay with IGROV1 ovarian and with NCI-H522 lung was more than 10 µM throughout. In addition, the TGI in the assay on SNB-19 CNS, in the assay with OVCAR-5 ovarian, with ACHN renal, in the assay on SK-MEL-2 melanoma, with HS 578T breast and in the assay with PC-3 prostate was more than 10 µM throughout.

Take `COc1ccc(C(=O)c2sc(Nc3ccccc3)nc2N)cc1`: the TGI in the assay with NCI-H226 lung, in the assay on DU-145 prostate, in the assay with MOLT-4 leukemia, in the assay with RPMI-8226 leukemia, in the assay with NCI-H460 lung and in the assay on SK-MEL-5 melanoma was more than 100 µM in each case. Moreover, the TGI in the assay with SR leukemia, in the assay with U251 CNS, in the assay with HCC-2998 colon, with IGROV1 ovarian, in the assay on NCI-H522 lung and in the assay on SNB-19 CNS was more than 100 µM each time. In addition, the TGI with OVCAR-5 ovarian, with ACHN renal, in the assay on K-562 leukemia, with SK-MEL-2 melanoma, in the assay on CCRF-CEM leukemia and in the assay with HS 578T breast was more than 100 µM in each case. In the assay with PC-3 prostate, this compound came in with a TGI of more than 100 µM.

In the case of `CCN(CC)CCC1CCCCN1CC(=O)N1c2ccccc2NC(=O)c2ccccc21` (stereo not given), the TGI in the assay on NCI-H226 lung, in the assay on DU-145 prostate, in the assay with COLO 205 colon, with MOLT-4 leukemia, in the assay on RPMI-8226 leukemia and in the assay on NCI-H460 lung was more than 100 µM each time. The TGI in the assay on SK-MEL-5 melanoma, with SR leukemia, with U251 CNS, with HCC-2998 colon, in the assay with IGROV1 ovarian and with NCI-H522 lung was more than 100 µM in each case. The TGI with SNB-19 CNS, in the assay on OVCAR-5 ovarian, with ACHN renal, in the assay with K-562 leukemia, in the assay on SK-MEL-2 melanoma and in the assay on CCRF-CEM leukemia was more than 100 µM each time. The TGI in the assay on HS 578T breast and in the assay on PC-3 prostate was more than 100 µM throughout.

Regarding `CCCCCCCCCCCCCCCCCCNc1ccn(C2OC(CO)C(O)C2O)c(=O)n1` (stereo not given), the concentration for total growth inhibition (TGI) was more than 100 µM with NCI-H226 lung; more than 100 µM with DU-145 prostate; more than 100 µM in the assay on COLO 205 colon; more than 49.7 µM in the assay on MOLT-4 leukemia; more than 100 µM in the assay on RPMI-8226 leukemia; more than 100 µM in the assay on NCI-H460 lung. Further, the TGI with SK-MEL-5 melanoma was more than 100 µM; in the assay on SR leukemia, more than 100 µM; with U251 CNS, more than 100 µM; in the assay with HCC-2998 colon, more than 100 µM; in the assay with IGROV1 ovarian it was more than 92.2 µM; with NCI-H522 lung, more than 100 µM. Also, the TGI was more than 100 µM with SNB-19 CNS; more than 100 µM with OVCAR-5 ovarian; more than 100 µM with ACHN renal; more than 100 µM with K-562 leukemia; more than 100 µM in the assay with SK-MEL-2 melanoma; 30.4 µM with CCRF-CEM leukemia. The TGI was more than 100 µM in the assay on HS 578T breast and more than 89.1 µM in the assay on PC-3 prostate.

Consider `Cc1cnc(/N=c2\sc(C)cn2-c2ncc(C)s2)s1`, for which the TGI in the assay on NCI-H226 lung, in the assay with DU-145 prostate, in the assay with COLO 205 colon, with MOLT-4 leukemia, in the assay on RPMI-8226 leukemia and with NCI-H460 lung was more than 100 µM in each case. Besides, the TGI in the assay with SK-MEL-5 melanoma, with SR leukemia, in the assay with U251 CNS, with HCC-2998 colon, in the assay with IGROV1 ovarian and in the assay with NCI-H522 lung was more than 100 µM each time. In addition, the TGI in the assay with SNB-19 CNS, with OVCAR-5 ovarian, with ACHN renal, with K-562 leukemia, in the assay with CCRF-CEM leukemia and in the assay on HS 578T breast was more than 100 µM each time. The compound also yielded a TGI in the assay with PC-3 prostate of more than 100 µM.

Turning to `COC(=O)C12OC(C)(C(CC(=O)OC(C)(C)C)C1=O)C1C(=O)N(c3ccccc3)C(=O)C12` (stereo not given), the TGI with NCI-H226 lung, with DU-145 prostate, in the assay on COLO 205 colon, in the assay with MOLT-4 leukemia, in the assay on RPMI-8226 leukemia and in the assay on NCI-H460 lung was more than 100 µM in each case. For the same compound, the TGI in the assay with SK-MEL-5 melanoma, with SR leukemia, with U251 CNS, with HCC-2998 colon, in the assay on IGROV1 ovarian and in the assay with NCI-H522 lung was more than 100 µM in each case. Besides, the TGI in the assay with SNB-19 CNS, with OVCAR-5 ovarian, with ACHN renal, in the assay with K-562 leukemia, in the assay with SK-MEL-2 melanoma and with CCRF-CEM leukemia was more than 100 µM throughout. Further, the TGI in the assay with HS 578T breast and with PC-3 prostate was more than 100 µM in each case.

As to `CCO[C@@H]1CCC(S(=O)c2ccc(C)cc2)=CO1` (stereo not given in full), the TGI in the assay on NCI-H226 lung, in the assay with DU-145 prostate, with COLO 205 colon, with MOLT-4 leukemia, with RPMI-8226 leukemia and in the assay with NCI-H460 lung was more than 100 µM each time. Also, the TGI in the assay on SK-MEL-5 melanoma, with SR leukemia, in the assay with U251 CNS, in the assay on HCC-2998 colon, in the assay with IGROV1 ovarian and with NCI-H522 lung was more than 100 µM each time. Moreover, the TGI in the assay on SNB-19 CNS, with OVCAR-5 ovarian, with ACHN renal, in the assay on K-562 leukemia, in the assay with SK-MEL-2 melanoma and in the assay with HS 578T breast was more than 100 µM throughout. In the assay on PC-3 prostate, this compound gave a TGI of more than 100 µM.

With `CC(=O)O[C@@H]1[C@H]2[C@@H](OC(=O)c3ccccc3)[C@@H](C)C[C@]2(O)[C@H](OC(C)=O)[C@@]2(C)[C@@H]3CC(C)(C)C(=O)[C@]3(OC(C)=O)C[C@@]12C`, the TGI with NCI-H226 lung, with DU-145 prostate, with COLO 205 colon, with MOLT-4 leukemia, in the assay with NCI-H460 lung and in the assay with SK-MEL-5 melanoma was more than 25 µM each time. Besides, the TGI with SR leukemia, with U251 CNS, in the assay with HCC-2998 colon, with IGROV1 ovarian, with NCI-H522 lung and in the assay with SNB-19 CNS was more than 25 µM each time. The TGI in the assay on OVCAR-5 ovarian, in the assay on ACHN renal, in the assay with SK-MEL-2 melanoma, in the assay with CCRF-CEM leukemia, in the assay with HS 578T breast and in the assay on PC-3 prostate was more than 25 µM throughout.

On to `CCOC(=O)c1sc2nc(SC)nc3c2c1NCN3c1ccc2c(c1)OCCCO2`, for which the TGI in the assay with NCI-H226 lung, in the assay with DU-145 prostate, with MOLT-4 leukemia, with RPMI-8226 leukemia, in the assay with NCI-H460 lung and in the assay on SK-MEL-5 melanoma was more than 100 µM in each case. Moreover, the TGI with SR leukemia was more than 100 µM; with U251 CNS, 57.7 µM; in the assay with HCC-2998 colon, more than 100 µM; in the assay on IGROV1 ovarian, more than 100 µM; in the assay on NCI-H522 lung, more than 100 µM; in the assay with SNB-19 CNS, more than 100 µM. Further, the TGI with OVCAR-5 ovarian was more than 100 µM; with ACHN renal, more than 100 µM; in the assay on K-562 leukemia it was more than 100 µM; in the assay on SK-MEL-2 melanoma, more than 100 µM; with CCRF-CEM leukemia, more than 100 µM; in the assay on HS 578T breast, 37 µM. The compound further gave a TGI in the assay on PC-3 prostate of more than 100 µM.

Consider `Cc1nc(-n2[nH]c(C)c(CCO)c2=O)[nH]c(=O)c1CCO`, for which the TGI in the assay on NCI-H226 lung, in the assay on DU-145 prostate, with COLO 205 colon, in the assay on MOLT-4 leukemia, in the assay with RPMI-8226 leukemia and with NCI-H460 lung was more than 100 µM in each case. For the same compound, the TGI with SK-MEL-5 melanoma, with SR leukemia, in the assay on U251 CNS, in the assay with HCC-2998 colon, in the assay with IGROV1 ovarian and in the assay on NCI-H522 lung was more than 100 µM throughout. Moreover, the TGI with SNB-19 CNS, with ACHN renal, with K-562 leukemia, in the assay with CCRF-CEM leukemia, with HS 578T breast and in the assay on PC-3 prostate was more than 100 µM throughout.

For the compound `c1ccc(-c2cs[s+]c2)cc1`, the TGI in the assay with NCI-H226 lung is more than 100 µM; in the assay on DU-145 prostate it was more than 100 µM; with COLO 205 colon it was more than 100 µM; in the assay with MOLT-4 leukemia it was 85.6 µM; with NCI-H460 lung, more than 100 µM; in the assay with SK-MEL-5 melanoma, more than 100 µM. Besides, the TGI in the assay on SR leukemia, in the assay with U251 CNS, with HCC-2998 colon, in the assay on IGROV1 ovarian, in the assay with NCI-H522 lung and in the assay with SNB-19 CNS was more than 100 µM each time. In addition, the TGI in the assay with OVCAR-5 ovarian is more than 100 µM; in the assay with ACHN renal it was more than 100 µM; with K-562 leukemia, more than 100 µM; in the assay on CCRF-CEM leukemia, 83.1 µM; with HS 578T breast, more than 100 µM; with PC-3 prostate it was more than 100 µM.

Consider `c1ccc(-c2ccc(-c3cc4ccccc4[nH]3)cc2)cc1`, for which the TGI in the assay on NCI-H226 lung, in the assay on DU-145 prostate, in the assay with COLO 205 colon, in the assay on MOLT-4 leukemia, in the assay with RPMI-8226 leukemia and in the assay on NCI-H460 lung was more than 100 µM in each case. For the same compound, the TGI with SK-MEL-5 melanoma, in the assay on SR leukemia, with U251 CNS, in the assay on HCC-2998 colon, in the assay on IGROV1 ovarian and in the assay on NCI-H522 lung was more than 100 µM each time. Moreover, the TGI in the assay with SNB-19 CNS, in the assay with OVCAR-5 ovarian, with ACHN renal, in the assay with SK-MEL-2 melanoma, in the assay on CCRF-CEM leukemia and in the assay on HS 578T breast was more than 100 µM throughout. The same compound showed a TGI in the assay on PC-3 prostate of more than 100 µM.

Turning to `C=C1CCC2CC1[C@@H](C(=O)c1c[nH]c3ccccc13)NC2(C)C` (stereo not given in full), the TGI with NCI-H226 lung, in the assay with DU-145 prostate, with COLO 205 colon, with MOLT-4 leukemia, in the assay with RPMI-8226 leukemia and in the assay on NCI-H460 lung was more than 37.5 µM throughout. Also, the TGI with SK-MEL-5 melanoma was more than 37.5 µM; in the assay with SR leukemia, more than 37.5 µM; in the assay on U251 CNS, more than 37.5 µM; with HCC-2998 colon, 32.4 µM; with IGROV1 ovarian, more than 37.5 µM; in the assay on NCI-H522 lung it was more than 37.5 µM. Also, the TGI in the assay with OVCAR-5 ovarian, in the assay on ACHN renal, with K-562 leukemia, in the assay on SK-MEL-2 melanoma, with CCRF-CEM leukemia and with HS 578T breast was more than 37.5 µM in each case. The TGI in the assay on PC-3 prostate was more than 37.5 µM.

In the case of `C=CC(C)(C)C(=C)C(=O)N(C)c1ccccc1I`, the TGI with NCI-H226 lung, in the assay with DU-145 prostate, in the assay with COLO 205 colon, in the assay on MOLT-4 leukemia, in the assay with RPMI-8226 leukemia and in the assay with NCI-H460 lung was more than 100 µM throughout. Besides, the TGI in the assay on SK-MEL-5 melanoma, with SR leukemia, in the assay on U251 CNS, with HCC-2998 colon, with NCI-H522 lung and in the assay on SNB-19 CNS was more than 100 µM each time. For the same compound, the TGI in the assay with OVCAR-5 ovarian, with ACHN renal, with K-562 leukemia, with SK-MEL-2 melanoma, in the assay with CCRF-CEM leukemia and in the assay on HS 578T breast was more than 100 µM in each case. In the assay with PC-3 prostate, the TGI was more than 100 µM.

The values are drawn from PubChem BioAssay (NCI).
